Assay results reported in patent US12122802B2, “D-allose crystal and production method thereof” (MATSUTANI CHEMICAL INDUSTRY CO., LTD., priority 2019, dated 2024).

How the values were obtained:
Format in all cases: physicochemical
[1] = aspect ratio of crystals from microscopic picture (Digital microscope VHX-5000, 50x)
Description: The “anhydrous D-allose crystals” of the present invention have an extremely large average particle size as described above and are not in a fine needle form, having a characteristic aspect ratio of the crystal. In the present invention, the aspect ratio refers to the ratio of the long diameter to the short diameter of a crystal (short diameter: minimum length of lines passing through the center of gravity of the plane shape of a crystal, long diameter: maximum length of a crystal measured orthogonal to the short diameter). In the present specification, the aspect ratio in a numerical range from A to B (A and B: arbitrary numbers) means that all of the aspect ratios of a specified number (preferably at least 10, for example 10) of crystal particles randomly selected are within the numerical range. Example of random selection of crystal particles includes a method comprising taking a microscopic picture of crystals at 20× to 50× magnification and, from the crystals on the diagonal line drawn from the upper left to the lower right of the microscopic picture taken, selecting 10 crystals with a full body shown in order from the upper left on the diagonal line. Specifically, the aspect ratio is preferably 1.0 to 10.0, more preferably 2.0 to 8.0, still more preferably 2.0 to 7.0. Next, the aspect ratio of the anhydrous D-allose crystals of the present invention was examined. Specifically, a microscopic picture of each of the anhydrous D-allose crystals obtained in the previous Test Nos. 1 to 5, 7 to 10 and 12 were taken using “Digital microscope VHX-5000” manufactured by KEYENCE Corporation (50×magnification). Among the crystals on the diagonal line drawn from the upper left to the lower right of the microscopic picture taken, 10 crystals with a full picture shown were selected in order from the upper left and then the long diameter and the short diameter of each crystal were measured for calculation of the aspect ratio (Long diameter/Short diameter, wherein short diameter refers to minimum length of lines passing through the center of gravity of the plane shape of a crystal, and long diameter refers to maximum length of a crystal measured orthogonal to the short diameter). The minimum value of the aspect ratio was 1.1 and the maximum value was 9.6 (Table 9).

[2] = particle size distribution by laser diffraction (Mastersizer 3000, dry dispersion unit Aero S); details: average of 5 measurements, dispersion pressure 1.0 bar
Description: The melting point (Tm) in the DSC refers to the melting start temperature of the endothermic peak obtained by DSC measurement (temperature at the extrapolated intersection of the base line and the maximum slope line of the endothermic peak), and the melting enthalpy (ΔH) refers to the area of the endothermic peak (ASTM D3418-15, Standard Test Method for Transition Temperatures and Enthalpies of Fusion and Crystallization of Polymers by Differential Scanning calorimetry). Further, in the present invention, the average particle size refers to the volume-based average particle size d[4,3], which is usually measured with a laser diffraction particle size distribution analyzer.
Next, the particle size distribution of the anhydrous D-allose crystals of the present invention was examined. Specifically, the anhydrous D-allose crystals obtained in the previous Test Nos. 1 to 5, 7 to 10 and 12, were subjected to measurement of particle size distribution under the measurement conditions shown in Table 7 using “Mastersizer 3000” and a “dry dispersion unit Aero S” manufactured by Malvern Instruments. More specifically, the measurement was repeated 5 times, and the average value of the 5 times measurements was used. No great variability was seen among the 5 times measurement values. The particle size distribution was expressed on a volume basis, and the volume-based average particle size d[4,3] and standard deviation σ were recorded. Also, the coefficient of variation CV=σ/d[4,3] was calculated in order to relatively evaluate the variation in the particle size distribution.

[3] = repose angle measured by powder tester PT-E (fluidity of anhydrous D-allose crystals); details: for Repose angle (degrees): anhydrous crystals of Test Nos. 1 to 12, hydrous crystals dried with evaporator (30° C., 20 hPa (abs), about 2 hours), average of three directions
Experimental: The fluidity of the anhydrous D-allose crystals obtained by drying the hydrous crystals obtained in each of Tests Nos. 1 to 12 with an evaporator (30° C., 20 hPa (abs), about 2 hours) as described above was evaluated by the repose angle measured by a powder tester PT-E (manufactured by Hosokawa Micron Corporation). Specifically, a sample was dropped and deposited on a disk, and the inclination angle was measured from three directions to obtain an average value. From the average value, the degree of fluidity was evaluated according to Table 1 in the Japanese Pharmacopoeia, 17th edition, Reference Information G2 physical property-related “Powder Fluidity” (same as the so-called Carr's fluidity index table, shown as Table 4).
In order to measure the water content in the crystals obtained by each of the drying methods, drying under reduced pressure under conditions at 70° C. for 18 hours was performed to calculate the water content in the crystals from the weight loss through the drying under reduced pressure. The repose angle was measured by the method described above to determine the degree of fluidity. The yield rate was calculated by the following expression. Yield rate (%)=(D/C)×100 [Expression 4]

O=C[C@H](O)[C@H](O)[C@H](O)[C@H](O)CO [Test No. 7, D-allose]
Aspect ratio (Long diameter/Short diameter) ([1]; crystal ① of 10 selected, listed as 7): 7.2
Aspect ratio (Long diameter/Short diameter) ([1]; crystal ② of 10 selected, listed as 7): 1.7
Aspect ratio (Long diameter/Short diameter) ([1]; crystal ③ of 10 selected, listed as 7): 5.2
Aspect ratio (Long diameter/Short diameter) ([1]; crystal ④ of 10 selected, listed as 7): 5.5
Aspect ratio (Long diameter/Short diameter) ([1]; crystal ⑤ of 10 selected, listed as 7): 2.5
Aspect ratio (Long diameter/Short diameter) ([1]; crystal ⑥ of 10 selected, listed as 7): 4.1
Aspect ratio (Long diameter/Short diameter) ([1]; crystal ⑦ of 10 selected, listed as 7): 4.3
Aspect ratio (Long diameter/Short diameter) ([1]; crystal ⑧ of 10 selected, listed as 7): 4.9
Aspect ratio (Long diameter/Short diameter) ([1]; crystal ⑨ of 10 selected, listed as 7): 3.5
Aspect ratio (Long diameter/Short diameter) ([1]; crystal ⑩ of 10 selected, listed as 7): 2.0
d [4, 3] (volume-based average particle size) ([2]; listed as 7): 549 μm
Repose angle (degrees) ([3]; listed as 7): 41.0 degrees
Degree of fluidity ([3]; anhydrous crystals of Test Nos. 1 to 12, evaluated from repose angle according to Table 4): Passable (41~45)

O=C[C@H](O)[C@H](O)[C@H](O)[C@H](O)CO [Test No. 8, D-allose]
Aspect ratio (Long diameter/Short diameter) ([1]; crystal ① of 10 selected, listed as 8): 3.5
Aspect ratio (Long diameter/Short diameter) ([1]; crystal ② of 10 selected, listed as 8): 7.7
Aspect ratio (Long diameter/Short diameter) ([1]; crystal ③ of 10 selected, listed as 8): 2.0
Aspect ratio (Long diameter/Short diameter) ([1]; crystal ④ of 10 selected, listed as 8): 3.6
Aspect ratio (Long diameter/Short diameter) ([1]; crystal ⑤ of 10 selected, listed as 8): 3.1
Aspect ratio (Long diameter/Short diameter) ([1]; crystal ⑥ of 10 selected, listed as 8): 2.8
Aspect ratio (Long diameter/Short diameter) ([1]; crystal ⑦ of 10 selected, listed as 8): 3.8
Aspect ratio (Long diameter/Short diameter) ([1]; crystal ⑧ of 10 selected, listed as 8): 4.7
Aspect ratio (Long diameter/Short diameter) ([1]; crystal ⑨ of 10 selected, listed as 8): 1.7
Aspect ratio (Long diameter/Short diameter) ([1]; crystal ⑩ of 10 selected, listed as 8): 3.3
d [4, 3] (volume-based average particle size) ([2]; listed as 8): 708 μm
Repose angle (degrees) ([3]; listed as 8): 41.7 degrees

O=C[C@H](O)[C@H](O)[C@H](O)[C@H](O)CO [Test No. 12, D-allose]
Aspect ratio (Long diameter/Short diameter) ([1]; crystal ① of 10 selected, listed as 12): 3.1
Aspect ratio (Long diameter/Short diameter) ([1]; crystal ② of 10 selected, listed as 12): 3.3
Aspect ratio (Long diameter/Short diameter) ([1]; crystal ③ of 10 selected, listed as 12): 4.2
Aspect ratio (Long diameter/Short diameter) ([1]; crystal ④ of 10 selected, listed as 12): 3.8
Aspect ratio (Long diameter/Short diameter) ([1]; crystal ⑤ of 10 selected, listed as 12): 3.6
Aspect ratio (Long diameter/Short diameter) ([1]; crystal ⑥ of 10 selected, listed as 12): 4.4
Aspect ratio (Long diameter/Short diameter) ([1]; crystal ⑦ of 10 selected, listed as 12): 4.7
Aspect ratio (Long diameter/Short diameter) ([1]; crystal ⑧ of 10 selected, listed as 12): 3.7
Aspect ratio (Long diameter/Short diameter) ([1]; crystal ⑨ of 10 selected, listed as 12): 3.7
Aspect ratio (Long diameter/Short diameter) ([1]; crystal ⑩ of 10 selected, listed as 12): 1.3
d [4, 3] (volume-based average particle size) ([2]; listed as 12): 333 μm
Repose angle (degrees) ([3]; listed as 12): 41.3 degrees

O=C[C@H](O)[C@H](O)[C@H](O)[C@H](O)CO [Test No. 1, D-allose]
Aspect ratio (Long diameter/Short diameter) ([1]; crystal ① of 10 selected, listed as 1): 3.5
Aspect ratio (Long diameter/Short diameter) ([1]; crystal ② of 10 selected, listed as 1): 3.4
Aspect ratio (Long diameter/Short diameter) ([1]; crystal ③ of 10 selected, listed as 1): 4.1
Aspect ratio (Long diameter/Short diameter) ([1]; crystal ④ of 10 selected, listed as 1): 4.4
Aspect ratio (Long diameter/Short diameter) ([1]; crystal ⑤ of 10 selected, listed as 1): 4.5
Aspect ratio (Long diameter/Short diameter) ([1]; crystal ⑥ of 10 selected, listed as 1): 2.2
Aspect ratio (Long diameter/Short diameter) ([1]; crystal ⑦ of 10 selected, listed as 1): 4.3
Aspect ratio (Long diameter/Short diameter) ([1]; crystal ⑧ of 10 selected, listed as 1): 3.6
Aspect ratio (Long diameter/Short diameter) ([1]; crystal ⑨ of 10 selected, listed as 1): 3.5
Aspect ratio (Long diameter/Short diameter) ([1]; crystal ⑩ of 10 selected, listed as 1): 4.1
d [4, 3] (volume-based average particle size) ([2]; listed as 1): 472 μm
Repose angle (degrees) ([3]; listed as 1): 43.0 degrees

O=C[C@H](O)[C@H](O)[C@H](O)[C@H](O)CO [Test No. 5, D-allose]
Aspect ratio (Long diameter/Short diameter) ([1]; crystal ① of 10 selected, listed as 5): 1.1
Aspect ratio (Long diameter/Short diameter) ([1]; crystal ② of 10 selected, listed as 5): 2.7
Aspect ratio (Long diameter/Short diameter) ([1]; crystal ③ of 10 selected, listed as 5): 3.2
Aspect ratio (Long diameter/Short diameter) ([1]; crystal ④ of 10 selected, listed as 5): 2.9
Aspect ratio (Long diameter/Short diameter) ([1]; crystal ⑤ of 10 selected, listed as 5): 4.7
Aspect ratio (Long diameter/Short diameter) ([1]; crystal ⑥ of 10 selected, listed as 5): 3.0
Aspect ratio (Long diameter/Short diameter) ([1]; crystal ⑦ of 10 selected, listed as 5): 4.9
Aspect ratio (Long diameter/Short diameter) ([1]; crystal ⑧ of 10 selected, listed as 5): 4.1
Aspect ratio (Long diameter/Short diameter) ([1]; crystal ⑨ of 10 selected, listed as 5): 1.6
Aspect ratio (Long diameter/Short diameter) ([1]; crystal ⑩ of 10 selected, listed as 5): 3.8
d [4, 3] (volume-based average particle size) ([2]; listed as 5): 498 μm
Repose angle (degrees) ([3]; listed as 5): 45.7 degrees

O=C[C@H](O)[C@H](O)[C@H](O)[C@H](O)CO [Test No. 9, D-allose]
Aspect ratio (Long diameter/Short diameter) ([1]; crystal ① of 10 selected, listed as 9): 6.2
Aspect ratio (Long diameter/Short diameter) ([1]; crystal ② of 10 selected, listed as 9): 4.3
Aspect ratio (Long diameter/Short diameter) ([1]; crystal ③ of 10 selected, listed as 9): 5.7
Aspect ratio (Long diameter/Short diameter) ([1]; crystal ④ of 10 selected, listed as 9): 3.0
Aspect ratio (Long diameter/Short diameter) ([1]; crystal ⑤ of 10 selected, listed as 9): 3.5
Aspect ratio (Long diameter/Short diameter) ([1]; crystal ⑥ of 10 selected, listed as 9): 5.9
Aspect ratio (Long diameter/Short diameter) ([1]; crystal ⑦ of 10 selected, listed as 9): 4.6
Aspect ratio (Long diameter/Short diameter) ([1]; crystal ⑧ of 10 selected, listed as 9): 2.6
Aspect ratio (Long diameter/Short diameter) ([1]; crystal ⑨ of 10 selected, listed as 9): 3.6
Aspect ratio (Long diameter/Short diameter) ([1]; crystal ⑩ of 10 selected, listed as 9): 1.9
d [4, 3] (volume-based average particle size) ([2]; listed as 9): 600 μm
Repose angle (degrees) ([3]; listed as 9): 41.0 degrees
